Laboratory results from patent EP4342467A1, “KU INHIBITORS FOR USE IN TUMOR THERAPY” (Masarykova Univerzita, priority 2022, dated 2024).
Like-named read-outs stand apart in the source and are kept apart here.

Columns and labels:
U2OS = assay: combination with BIBR1532, relative growth by ATPlite; assay type: cell-based, human; conditions: 10 µM BIBR1532, 0.25 µM iKU-1 or their combination, 4 days
HCT116 = assay: as above; assay type: cell-based, human; conditions: HCT116; 10 µM BIBR1532, 0.25 µM iKU-1 or their combination; 4 days
Description: 10,000 HCT116 cells were seeded in 100 µl of McCoy's 5a medium supplemented with 10% Fetal Bovine Serum, 2 mM L-Glutamine and Penicilin/Streptomycin 200 U/l for 1 day in 96well plate and treated with 10 µM BIBR1532, 0.25 µM of iKU-1 or their combination for 4 days. Number of viable cells was measured by ATPlite kit (Perkin Elmer) and normalized to the treatment with 0.5% DMSO. The results presented in Table 2 show a synergistic effect of iKU-1 and BIBR1532 on the growth of HCT116 tumor cell line. Values in the table indicate relative growth assessed by ATPlite kit compared to the control sample treated with 0.5% DMSO after 4 days of treatment.

HeLa = assay: as above; assay type: cell-based, human; conditions: 10 µM BIBR1532, 0.25 µM iKU-1 or their combination, 4 days
HCT116 cells [1] = assay: cell proliferation, ATPlite assay; assay type: cell-based; conditions: Homo sapiens, HCT-116, 120 h, read-out: Inhibition of cell proliferation IC50
Description: HCT116, U2OS and HeLa cells were grown in McCoy's 5a medium supplemented with 10% Fetal Bovine Serum, 2 mM L-Glutamine and Penicilin/Streptomycin 200 U/l each in the presence of Compound 1-9. After growth at 37 °C, 5% CO2 for 3 days, monolayer of cells was detached using TrypLE Express (Gibco), cells were counted using 0.4% trypan blue stain and hemocytometer. […] Number of viable cells was estimated using ATPlite kit (Perkin Elmer).

Ku complex = Ku complex (Homo sapiens, UniProt P12956+P13010); assay: microwell protein induced fluorescent enhancement assay (mwPIFE) of Ku-DNA binding; conditions: for remaining activity at 8 µM: read-out: % binding at 8 µM (100% = 0.5% DMSO); for IC50: estimated from the 0.5 to 8 µM concentration range, read-out: Inhibition of Ku-DNA binding IC50
Description: A rapid method for detecting protein-nucleic acid interactions by protein induced fluorescence enhancement. Sci Rep 6, 39653. mwPIFE is based on enhanced fluorescence of cyanine fluorophores attached to nucleic acid probes upon protein binding. […] The probe was immobilized in 96 well plates through biotin (Btn) attached to one end of DNA and incubated with purified Ku complex (0.5 pmol) in 50 µl of binding buffer (10 mM calcium acetate, 60 mM potassium acetate, 20 mM TRISacetate pH 7.9, 100 mg BSA/1). Ku-DNA binding was calculated from altered fluorescence measured by a fluorescence plate reader (Valuchova et al., 2016). […]

HCT116 cells [2] = assay: C-circle assay (extrachromosomal circular telomeric DNA); assay type: cell-based, human; conditions: C-circle assay in HCT116 cells treated for 3 to 7 days
Description: HCT116 cell were incubated for 3, 5 or 7 days in McCoy's 5a medium with 10% Fetal Bovine Serum, 2 mM L-Glutamine and Penicilin/Streptomycin 200 U/l each and supplemented with Compound 1-9. C-circle assay that utilizes rolling circle amplification of circular DNA by φ29 polymerase was performed as described in Henson, J.D., Lau, L.M., Koch, S., Martin La Rotta, N., Dagg, R.A., and Reddel, R.R. (2017). The C-Circle Assay for alternative-lengthening-of-telomeres activity. Methods 114, 74-84. Amplified circular telomeric DNA was detected by dot blot hybridization with P^32-labeled telomeric DNA oligonucleotide (5'-[…]-3' (SEQ ID NO: 6)) (Figure 4).

[3] = literature (Weterings et al. 2016); cited from earlier work
A2780 = assay: growth of A2780 cells by ATPlite, alone and in combination with Bleomycin; assay type: cell-based, human; conditions: A2780; 0.025 µg/ml Bleomycin, 0.5 µM iKU-1 or their combination; 7 days
Description: 2,000 A2780 cells were seeded in 100 µl of RPMI 1640 medium with 300 mg/l L-Glutamine and 10% Fetal Bovine Serum for 1 day in 96well plate and treated by 0.025 µg/ml of Bleomycin, 0.5 µM of iKu-1 or their combination for 7 days. Number of viable cells was measured by ATPlite kit (Perkin Elmer) and normalized to the treatment with 0.5% DMSO.
Values in the table indicate relative growth assessed by ATPlite kit compared to the control sample treated with 0.5% DMSO after 7 days of treatment.
2,000 SKOV3 and A2780 cells were seeded in 100 µl of McCoy's 5a or RPMI 1640 media, respectively, for one day and then incubated with iKU-1 for 7 days. Number of viable cells was measured by ATPlite kit (Perkin Elmer) and normalized to the treatment with 0.5% DMSO.

[4] = ATPlite assay in HCT116 cells treated for 5 days
[5] = mwPIFE, 8 µM inhibitor compared to 0.5% DMSO

Chain of Ku complex (P12956 whole entry): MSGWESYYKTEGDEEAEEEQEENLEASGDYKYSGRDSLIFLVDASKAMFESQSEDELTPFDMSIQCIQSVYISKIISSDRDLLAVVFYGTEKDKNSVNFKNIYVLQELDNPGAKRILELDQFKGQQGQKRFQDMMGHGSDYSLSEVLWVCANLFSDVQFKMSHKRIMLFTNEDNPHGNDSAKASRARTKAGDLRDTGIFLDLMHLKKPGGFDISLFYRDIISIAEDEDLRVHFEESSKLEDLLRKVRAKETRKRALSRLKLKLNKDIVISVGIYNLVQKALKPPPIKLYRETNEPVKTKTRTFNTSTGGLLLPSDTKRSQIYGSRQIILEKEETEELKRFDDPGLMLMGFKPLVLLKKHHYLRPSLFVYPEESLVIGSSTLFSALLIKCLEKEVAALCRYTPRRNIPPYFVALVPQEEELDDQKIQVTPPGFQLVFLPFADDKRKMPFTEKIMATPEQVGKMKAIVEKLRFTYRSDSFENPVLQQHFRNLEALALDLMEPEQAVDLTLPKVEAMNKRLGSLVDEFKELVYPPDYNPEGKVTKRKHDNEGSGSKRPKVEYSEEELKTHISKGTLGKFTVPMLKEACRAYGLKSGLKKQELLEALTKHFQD
Chain of Ku complex (P13010 whole entry): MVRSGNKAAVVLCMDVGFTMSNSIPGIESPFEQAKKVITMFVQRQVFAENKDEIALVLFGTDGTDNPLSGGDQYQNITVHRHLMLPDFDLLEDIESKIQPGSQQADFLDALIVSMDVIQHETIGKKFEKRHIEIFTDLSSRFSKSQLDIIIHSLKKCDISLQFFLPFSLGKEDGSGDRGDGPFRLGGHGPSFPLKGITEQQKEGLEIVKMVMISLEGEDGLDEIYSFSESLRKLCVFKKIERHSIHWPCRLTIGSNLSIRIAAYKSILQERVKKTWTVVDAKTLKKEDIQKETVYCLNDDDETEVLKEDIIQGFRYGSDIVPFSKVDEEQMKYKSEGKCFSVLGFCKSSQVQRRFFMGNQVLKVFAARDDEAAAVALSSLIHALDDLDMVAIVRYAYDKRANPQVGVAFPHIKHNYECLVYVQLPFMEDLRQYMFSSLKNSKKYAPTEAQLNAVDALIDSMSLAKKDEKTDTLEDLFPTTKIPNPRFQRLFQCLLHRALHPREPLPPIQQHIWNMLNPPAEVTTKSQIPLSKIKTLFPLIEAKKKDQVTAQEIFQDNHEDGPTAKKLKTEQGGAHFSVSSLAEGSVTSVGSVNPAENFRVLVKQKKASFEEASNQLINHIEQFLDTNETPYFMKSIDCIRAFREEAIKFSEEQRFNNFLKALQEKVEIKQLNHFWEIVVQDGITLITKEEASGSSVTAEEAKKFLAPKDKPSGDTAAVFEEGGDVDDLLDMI

Row | Molecule | Concentration inducing c-circle formation (HCT116 cells [2]) [µM] | IC50 (HCT116 cells [1]) [µM] | IC50 (Ku complex; mwPIFE) [µM] | remaining activity at 8 µM (Ku complex) [%] | further results
1 | C/C(=C\C(=O)Nc1ccccc1C(=O)O)c1ccc2ccccc2c1 [BIBR1532, reference compound] |  |  |  |  | relative growth assessed by ATPlite kit compared to the control sample treated with 0.5% DMSO (U2OS): 0.88; relative growth assessed by ATPlite kit compared to the control sample treated with 0.5% DMSO (HCT116): 0.88; relative growth assessed by ATPlite kit compared to the control sample treated with 0.5% DMSO (HeLa): 0.92
2 | O=C(Nc1nc(-c2ccccn2)cs1)c1cccnc1 [Compound 2] | 5 |  |  |  | IC50 (HCT116 cells [1]; [4]): < 5 µM; remaining activity at 8 µM (Ku complex; [5]): 97%
3 | O=C(Nc1nc(-c2ccccn2)cs1)c1cccc(Br)c1 [Compound 3] |  |  |  |  | IC50 (HCT116 cells [1]; [4]): < 5 µM; remaining activity at 8 µM (Ku complex; [5]): 76%
4 | O=C(Nc1nc(-c2ccccn2)cs1)c1ccc(NC2CC2)nc1 [Compound 4] | 10 | 8 | 7 | 47 | 
5 | CC(=O)NCCc1ccc(-c2csc(NC(=O)c3cncc(Br)c3)n2)cc1 [Compound 5] |  | < 5 | > 8 | 75 | 
6 | CC(=O)Nc1ccc(-c2csc(NC(=O)c3cncc(Br)c3)n2)cc1 [Compound 6] |  | 20 | > 8 | 55 | 
7 | O=C(Nc1nc(-c2cccnc2)cs1)c1cncc(Br)c1 [Compound 7] | 50 | > 20 | > 8 | 55 | 
8 | O=C(Nc1nc(-c2ccccc2)cs1)c1cncc(Br)c1 [Compound 8] | 50 | > 20 | > 8 | 71 | 
9 | Cc1ccc(C(=O)Nc2nc(-c3ccccc3)cs2)cc1 [Compound 9] | 20 |  | > 8 |  | IC50 (HCT116 cells [1]; [4]): 9 µM; remaining activity at 8 µM (Ku complex; [5]): 99%
10 | COc1ccc(CCNc2ncc3c(=O)n(-c4cccc(F)c4)c(=O)[nH]c3n2)cc1OC [STL127705] |  |  |  |  | concentration conferring enhanced sensitivity to irradiation [3]: 20 to 30 µM
11 | Bleomycin [reference compound] |  |  |  |  | relative growth assessed by ATPlite kit compared to the control sample treated with 0.5% DMSO (A2780): 1.00
